Measurements reported in patent US20100061982A1, “3-SUBSTITUTED-1H-INDOLE, 3-SUBSTITUTED-1H-PYRROLO[2,3-B]PYRIDINE AND 3-SUBSTITUTED-1H-PYRROLO[3,2-B]PYRIDINE COMPOUNDS, THEIR USE AS MTOR KINASE AND PI3 KINASE INHIBITORS, AND THEIR SYNTHESES” (priority 2008, published 2010).
pIC50: −log10 of the molar value. Values after ≈ are worked out from the molar mass of the structure shown. Where two headings read alike, the source gives them in different places.

Legend:
[1] = In vivo blood/plasma and tumor levels of prodrug and metabolites after 50 mg, kg po; settings: for plasma prodrug concentration / tumor prodrug concentration / plasma prodrug, Dosed @ 50 mg, kg po (precursor phenolic compound dosed): 50 mg
[2] = biological target: PI3K alpha (Homo sapiens, UniProt P42336); assay: PI3K-alpha Fluorescence Polarization Assay; assay type: biochemical
[3] = Plasma Stability (37° C.), rat
[4] = Buffer Stability (37° C.)
[5] = CACO2 permeability a-b/b-a; assay type: in vitro ADME; settings: human, Caco-2; for Papp A→B: a − b (first value of cell), read-out: CACO2 Pe a − b; for Papp B→A: b − a (second value of cell), read-out: CACO2 Pe b − a
[6] = PAMPA permeability pH 7.4
[7] = Microsome Stability (15 min), rat; assay type: in vitro ADME; settings: microsomes
[8] = Microsome Stability (15 min), nude mouse; assay type: in vitro ADME; settings: microsomes
[9] = Plasma Stability (37° C.), nude mouse
[10] = Microsome Stability (15 min), human; assay type: in vitro ADME; settings: microsomes
[11] = Solubility pH 7.4; settings: pH 7.4, aqueous buffer
[12] = Phase I (NADPH), read-out: Microsome Stability (15 min) T ½ Phase I rat
[13] = Phase I (NADPH), read-out: Microsome Stability (15 min) T ½ Phase I nude mouse
[14] = Phase I (NADPH), read-out: Microsome Stability (15 min) T ½ Phase I human
[15] = nude, mouse, Phase I (NADPH), read-out: Microsome Stability (15 min) T ½ Phase I nude mouse
[16] = value after the slash in Table VIc, read-out: Microsome Stability (15 min) T ½ human, second value of cell

PI3K alpha, sequence (P42336 whole entry, species assumed): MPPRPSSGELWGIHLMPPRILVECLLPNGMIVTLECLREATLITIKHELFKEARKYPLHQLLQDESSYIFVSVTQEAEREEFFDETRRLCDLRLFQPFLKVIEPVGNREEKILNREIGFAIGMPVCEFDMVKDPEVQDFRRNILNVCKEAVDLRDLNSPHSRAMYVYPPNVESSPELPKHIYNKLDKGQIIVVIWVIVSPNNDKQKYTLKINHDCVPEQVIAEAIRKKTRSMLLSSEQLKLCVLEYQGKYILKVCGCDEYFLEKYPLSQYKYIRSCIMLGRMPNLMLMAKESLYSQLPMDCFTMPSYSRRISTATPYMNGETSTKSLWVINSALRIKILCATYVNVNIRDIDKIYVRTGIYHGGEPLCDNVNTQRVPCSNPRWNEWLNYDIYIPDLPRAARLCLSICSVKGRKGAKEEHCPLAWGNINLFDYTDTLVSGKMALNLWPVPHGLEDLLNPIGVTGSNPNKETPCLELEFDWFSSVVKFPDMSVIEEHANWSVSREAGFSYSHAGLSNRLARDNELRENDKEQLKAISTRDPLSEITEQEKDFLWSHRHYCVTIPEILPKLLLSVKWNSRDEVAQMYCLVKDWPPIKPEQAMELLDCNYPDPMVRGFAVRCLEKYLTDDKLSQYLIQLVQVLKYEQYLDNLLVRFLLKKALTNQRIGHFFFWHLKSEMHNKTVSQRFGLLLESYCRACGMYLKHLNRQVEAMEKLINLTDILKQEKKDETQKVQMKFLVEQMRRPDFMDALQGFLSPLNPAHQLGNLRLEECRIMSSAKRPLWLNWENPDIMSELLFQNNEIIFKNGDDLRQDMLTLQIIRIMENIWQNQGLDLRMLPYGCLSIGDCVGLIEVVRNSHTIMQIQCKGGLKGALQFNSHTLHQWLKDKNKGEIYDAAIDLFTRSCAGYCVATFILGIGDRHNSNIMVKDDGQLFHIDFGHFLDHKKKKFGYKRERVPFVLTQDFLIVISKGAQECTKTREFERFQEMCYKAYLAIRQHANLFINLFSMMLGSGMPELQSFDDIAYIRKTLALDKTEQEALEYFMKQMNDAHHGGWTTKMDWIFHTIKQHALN
PI3K alpha, sequence (P27986 whole entry partner, species assumed): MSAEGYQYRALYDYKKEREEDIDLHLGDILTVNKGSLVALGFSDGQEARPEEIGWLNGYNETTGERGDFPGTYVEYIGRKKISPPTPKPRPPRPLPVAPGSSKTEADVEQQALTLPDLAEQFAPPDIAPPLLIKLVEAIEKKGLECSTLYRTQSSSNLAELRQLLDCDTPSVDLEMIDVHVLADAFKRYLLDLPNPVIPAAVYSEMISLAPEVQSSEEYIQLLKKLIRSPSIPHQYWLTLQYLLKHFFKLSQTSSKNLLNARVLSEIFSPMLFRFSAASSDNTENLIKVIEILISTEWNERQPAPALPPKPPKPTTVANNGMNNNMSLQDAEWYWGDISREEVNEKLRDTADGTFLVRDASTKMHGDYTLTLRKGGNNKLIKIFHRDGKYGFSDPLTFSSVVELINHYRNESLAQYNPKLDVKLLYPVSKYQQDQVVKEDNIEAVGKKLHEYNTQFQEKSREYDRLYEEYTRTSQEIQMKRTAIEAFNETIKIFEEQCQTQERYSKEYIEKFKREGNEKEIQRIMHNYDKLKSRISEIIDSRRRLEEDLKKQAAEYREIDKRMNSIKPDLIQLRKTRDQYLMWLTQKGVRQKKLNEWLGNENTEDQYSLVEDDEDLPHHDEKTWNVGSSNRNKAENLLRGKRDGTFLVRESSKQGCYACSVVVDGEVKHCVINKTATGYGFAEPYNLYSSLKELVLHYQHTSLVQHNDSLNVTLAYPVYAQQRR

| SMILES | plasma prodrug concentration ([1]; 0.5 h) | plasma prodrug concentration ([1]; 2 h) | pIC50 [2] | Plasma Stability (37° C.) % Remaining (3-3.5 hours) rat [3] [%] | Buffer Stability (37° C.) % Remaining (at 16-23 hours) SGF [4] [%] | Buffer Stability (37° C.) % Remaining (at 16-23 hours) SIF [4] [%] | Buffer Stability (37° C.) % Remaining (at 16-23 hours) pH 1 [4] [%] | Buffer Stability (37° C.) % Remaining (at 16-23 hours) pH 4.5 [4] [%] | Buffer Stability (37° C.) % Remaining (at 16-23 hours) pH 6.6 [4] [%] | Buffer Stability (37° C.) % Remaining (at 16-23 hours) pH 7.4 [4] [%] | Buffer Stability (37° C.) % Remaining (at 16-23 hours) pH 9 [4] [%] | Papp A→B [5] [×10⁻⁶ cm/s] | Papp B→A [5] [×10⁻⁶ cm/s] | PAMPA Pe [6] | half-life [7, 12] [min] | half-life [8, 13] [min] | Plasma Stability (37° C.) % Remaining (3-3.5 hours) nude mouse [9] [%] | half-life [10, 14] [min] | solubility [11] [µg/mL] | half-life [8, 15] [min] | further results |
| --- | --- | --- | --- | --- | --- | --- | --- | --- | --- | --- | --- | --- | --- | --- | --- | --- | --- | --- | --- | --- | --- |
| COc1ccc2c(c1)c(/C=C1\Oc3cc(OC(=O)N(C)c4ccccc4)cc(OC(=O)N(C)c4ccccc4)c3C1=O)cn2CCCN(C)C [Example 2, (2Z)-2-({1-[3-(dimethylamino)propyl]-5-methoxy-1H-indol-3-yl}methylene)-3-oxo-2,3-dihydro-1-benzofuran-4,6-diyl bis[methyl(phenyl)carbamate]] | 486 ng, ml | 757 ng, ml | < 5.00 | 22 | 100 | 100 | 100 | 100 | 100 | 100 | 100 | 0.04 | 0.08 | 0 10e−6 cm/s | > 30 | > 30 | 10 | 24 | – | – | – |
| COc1ccc2c(c1)c(/C=C1\Oc3cc(OC(=O)N(C(C)C)C(C)C)cc(OC(=O)N(C(C)C)C(C)C)c3C1=O)cn2CCCN(C)C [Example 4, (2Z)-2-({1-[3-(dimethylamino)propyl]-5-methoxy-1H-indol-3-yl}methylene)-3-oxo-2,3-dihydro-1-benzofuran-4,6-diyl bis(diisopropylcarbamate)] | 411 ng, ml | 435 ng, ml | < 5.00 | 65 | 100 | 100 | 100 | 100 | – | 100 | 100 | 0.16 | 0.06 | 0 10e−6 cm/s | > 30 | 21 | 64 | 6 | – | – | – |
| COc1ccc2c(c1)c(/C=C1\Oc3cc(OC(=O)N(C)C)cc(OC(=O)N(C)C)c3C1=O)c(C)n2CCN1CCN(C)CC1 [Example 12, (2Z)-2-({5-methoxy-2-methyl-1-[2-(4-methylpiperazin-1-yl)ethyl]-1H-indol-3-yl}methylene)-3-oxo-2,3-dihydro-1-benzofuran-4,6-diyl bis(dimethylcarbamate)] | 2444, ng, ml | 3871, ng, ml | < 5.00 | 71 | 100 | 100 | 100 | 100 | 100 | 100 | 90 | 1.98 | 3.36 | 0.78 10e−6 cm/s | 23 | 23 | 32 | 9 | 40 (≈ 66 µM) | – | tumor prodrug concentration ([1]; 0.5 h): 344, ng, ml; tumor prodrug concentration ([1]; 2 h): 1278, ng, ml; tumor prodrug concentration ([1]; 6 h): 629 ng, ml; plasma prodrug concentration ([1]; 6 h (third value)): 2027, ng, ml; plasma prodrug concentration ([1]; 10 h): 443 ng, ml; tumor prodrug concentration ([1]; 10 h): 69 ng, ml; plasma prodrug concentration ([1]; 24 h): 1 ng, ml; tumor prodrug concentration ([1]; 24 h): bql; tumor precursor phenolic cmpd concentration (metabolite) ([1]; prodrug 50 mg, 6 h (third value)): bql; blood 4-OH, 6-OR mono prodrug concentration (metabolite) ([1]; prodrug 50 mg, 24 h): bql; blood 6-OH, 4-OR mono prodrug concentration (metabolite) ([1]; prodrug 50 mg, 24 h): bql; tumor 6-OH, 4-OR mono prodrug concentration (metabolite) ([1]; prodrug 50 mg, 24 h): bql |
| COc1ccc2c(c1)c(/C=C1\Oc3cc(O)cc(O)c3C1=O)cn2CCCN(C)C [(2Z)-2-({1-[3-(dimethylamino)propyl]-5-methoxy-1H-indol-3-yl}methylene)-4,6-dihydroxy-1-benzofuran-3(2H)-one] | – | – | – | 77 | 95 | 57 | 99 | 93 | 83 | 82 | 94 | 3.9 | 27 | 0 10e−6 cm/s | 6 | – | 78 | > 30 | 33 (≈ 80.8 µM) | 15 | plasma prodrug, Dosed @ 50 mg, kg po (precursor phenolic compound dosed) ([1]; 1 h conc.): 23; plasma prodrug, Dosed @ 50 mg, kg po (precursor phenolic compound dosed) ([1]; 4 h conc.): 7; half-life [10, 16]: 28 min |
| COc1ccc2[nH]c(-c3ccccc3)c(/C=C3\Oc4cc(O)ccc4C3=O)c2c1 [(2Z)-6-hydroxy-2-[(5-methoxy-2-phenyl-1H-indol-3-yl)methylene]-1-benzofuran-3(2H)-one] | – | – | – | 111 | 93 | 97 | 97 | 98 | 98 | 98 | 99 | 0.03 | 0.11 | 0.18 10e−6 cm/s | 18 | – | 83 | 15 | – | 19 | plasma prodrug, Dosed @ 50 mg, kg po (precursor phenolic compound dosed) ([1]; first value, time not stated in Table VIIb): bql, bql; plasma prodrug, Dosed @ 50 mg, kg po (precursor phenolic compound dosed) ([1]; second value, time not stated in Table VIIb): bql, bql; pIC50 ([2]; read-out: PI3K alpha Mean IC50): 8.89; half-life ([7]; value after the slash in Table VIc, read-out: Microsome Stability (15 min) T ½ rat, second value of cell): 4 min; half-life ([8]; nude, mouse, value after the slash in Table VIc, read-out: Microsome Stability (15 min) T ½ nude mouse, second value of cell): 4 min; half-life [10, 16]: 3 min |
